# Measured values taken from US20100144755A1 (Glaxo Group Limited, priority 2006, published 2010).
# Counter-ions that a name gives are not always drawn.
# Test system: influx of neutrophils to the lung in LPS-challenged rats
# Assay: Rat LPS neutrophilia model
# Assay type: in vivo
# Details: LPS aerosol, intratracheal dosing, in at least one of the range of conditions tested, significance p<0.05
# Description: Rat LPS Neutrophilia Model
# The effect of compounds on the influx of neutrophils to the lung in LPS-challenged rats is evaluated as follows. The test compound is suspended in one of the following solutions: 0.5% tween 80/PBS, 0.5% tween 80/saline, 10% EtOH/saline (with pH adjusted to 2.0, or 8.0 with HCl, or unadjusted), Saline @pH 2.0, 6.5 or 8.0, 0.5% Tragacanth, 1% DMSO/20% Encapsin/Saline, or acidified 5% Tragacanth. The suspension process may be aided by the use of a glass homogenizer. For intratracheal administration, the animals are anesthetized with inhaled isoflurane and placed in a supine position, the trachea is intubated with a steel gavage needle (1.5 inch, 22 gauge, small ball) or a Penn-Century Microsprayer Aerosolizer (model IA-1B) and 200 ul of dosing solution is delivered. The animals are visually monitored during the recovery process, which typically occurs within two minutes. It is noted that the test compounds may be alternatively administered via the microsprayer in a dry powder blend with a suitable excipient, such as lactose.
# Rats treated with compound or vehicle (15 min-24 hours pretreatment) are exposed to an LPS aerosol (100 ug/ml) for 15 min. Four hours later the rats are euthanized with pentobarbital (100 mg/kg, i.p.) and the airways are lavaged with 5 washes of 5 ml of phosphate buffered saline. The harvested cells are stained (Diffquick) and counted to determine total and differential cell data. […] Inhibition of neutrophil levels relative to no compound controls is calculated based on the differential counts.
# The data is obtained as % inhibition using a particular concentration and pretreat time.
row,Compound,inhibition of neutrophilia
1,"CCN(CC)CCCNc1nc(-c2cc(C(=O)N[C@@H](C)c3ccccc3)ccc2C)c2ccc(=O)n(-c3c(F)cccc3F)c2n1 [Example 149, 3-[2-{[3-(diethylamino)propyl]amino}-8-(2,6-difluorophenyl)-7-oxo-7,8-dihydropyrido[2,3-d]pyrimidin-4-yl]-4-methyl-N-[(1S)-1-phenylethyl]benzamide]",inactive
2,"CCN(CC)CCCNc1nc(-c2cc(C(=O)NC3CCC3)ccc2C)c2ccc(=O)n(-c3c(F)cccc3F)c2n1 [Example 137, N-cyclobutyl-3-[2-{[3-(diethylamino)propyl]amino}-8-(2,6-difluorophenyl)-7-oxo-7,8-dihydropyrido[2,3-d]pyrimidin-4-yl]-4-methylbenzamide trifluoroacetate]",statistically significant inhibition
3,"Cc1ccc(C(=O)Nc2nccs2)cc1-c1nc(NC2CC(C)(C)NC(C)(C)C2)nc2c1ccc(=O)n2-c1c(F)cccc1F [Example 67, 3-{8-(2,6-difluorophenyl)-7-oxo-2-[(2,2,6,6-tetramethyl-4-piperidinyl)amino]-7,8-dihydropyrido[2,3-d]pyrimidin-4-yl}-4-methyl-N-1,3-thiazol-2-ylbenzamide]",statistically nonsignificant inhibition
4,"CCN(CC)CCCNc1nc(-c2cc(C(=O)NC3CC3)cc(F)c2C)c2ccc(=O)n(-c3c(F)cccc3F)c2n1 [Example 185, N-cyclopropyl-3-[2-{[3-(diethylamino)propyl]amino}-8-(2,6-difluorophenyl)-7-oxo-7,8-dihydropyrido[2,3-d]pyrimidin-4-yl]-5-fluoro-4-methylbenzamide]",statistically nonsignificant inhibition
5,"CCN(CC)CCCNc1nc(-c2cc(C(=O)NC3CCCC3)ccc2C)c2ccc(=O)n(-c3c(F)cccc3F)c2n1 [Example 125, N-cyclopentyl-3-[2-{[3-(diethylamino)propyl]amino}-8-(2,6-difluorophenyl)-7-oxo-7,8-dihydropyrido[2,3-d]pyrimidin-4-yl]-4-methylbenzamide]",statistically nonsignificant inhibition
6,"CCN(CC)CCCNc1nc(-c2cc(C(=O)NCCOC)ccc2C)c2ccc(=O)n(-c3c(F)cccc3F)c2n1 [Example 134, 3-[2-{[3-(diethylamino)propyl]amino}-8-(2,6-difluorophenyl)-7-oxo-7,8-dihydropyrido[2,3-d]pyrimidin-4-yl]-4-methyl-N-[2-(methyloxy)ethyl]benzamidetrifluoroacetate]",statistically nonsignificant inhibition
7,"CCN(CC)CCCNc1nc(-c2cc(C(=O)NC(C)C)ccc2C)c2ccc(=O)n(-c3c(F)cccc3F)c2n1 [118(b), 3-[2-{[3-(diethylamino)propyl]amino}-8-(2,6-difluorophenyl)-7-oxo-7,8-dihydropyrido[2,3-d]pyrimidin-4-yl]-4-methyl-N-(1-methylethyl)benzamide]",statistically nonsignificant inhibition
8,"Cc1ccc(C(=O)NCC(C)C)cc1-c1nc(N2CCC(N3CCC(C)CC3)CC2)nc2c1ccc(=O)n2-c1c(F)cccc1F [Example 168, 3-[8-(2,6-difluorophenyl)-2-(4-methyl-1,4′-bipiperidin-1′-yl)-7-oxo-7,8-dihydropyrido[2,3-d]pyrimidin-4-yl]-4-methyl-N-(2-methylpropyl)benzamide]",inactive
9,"Cc1ccc(C(=O)NCc2ccccc2)cc1-c1nc(N2CCC(N)CC2)nc2c1ccc(=O)n2-c1c(F)cccc1F [Example 71, 3-[2-(4-amino-1-piperidinyl)-8-(2,6-difluorophenyl)-7-oxo-7,8-dihydropyrido[2,3-d]pyrimidin-4-yl]-4-methyl-N-(phenylmethyl)benzamide]",statistically nonsignificant inhibition
10,"CCNC(=O)c1ccc(C)c(-c2nc(N3CCC(N4CCC(C)CC4)CC3)nc3c2ccc(=O)n3-c2c(F)cccc2F)c1 [Example 173, 3-[8-(2,6-difluorophenyl)-2-(4-methyl-1,4′-bipiperidin-1′-yl)-7-oxo-7,8-dihydropyrido[2,3-d]pyrimidin-4-yl]-N-ethyl-4-methylbenzamide]",statistically significant inhibition
11,"Cc1ccc(NC(=O)c2ccsc2)cc1-c1nc(NC2CC(C)(C)NC(C)(C)C2)nc2c1ccc(=O)n2-c1c(F)cccc1F [31(e), N-(3-{8-(2,6-difluorophenyl)-7-oxo-2-[(2,2,6,6-tetramethyl-4-piperidinyl)amino]-7,8-dihydropyrido[2,3-d]pyrimidin-4-yl}-4-methylphenyl)-3-thiophenecarboxamide]",statistically significant inhibition
12,"CCCCNC(=O)c1ccc(C)c(-c2nc(N3CCC(N4CCC(C)CC4)CC3)nc3c2ccc(=O)n3-c2c(F)cccc2F)c1 [Example 167, N-butyl-3-[8-(2,6-difluorophenyl)-2-(4-methyl-1,4′-bipiperidin-1′-yl)-7-oxo-7,8-dihydropyrido[2,3-d]pyrimidin-4-yl]-4-methylbenzamide]",statistically significant inhibition
13,"CCCNC(=O)c1ccc(C)c(-c2nc(N3CCC(N4CCC(C)CC4)CC3)nc3c2ccc(=O)n3-c2c(F)cccc2F)c1 [Example 166, 3-[8-(2,6-difluorophenyl)-2-(4-methyl-1,4′-bipiperidin-1′-yl)-7-oxo-7,8-dihydropyrido[2,3-d]pyrimidin-4-yl]-4-methyl-N-propylbenzamide]",statistically significant inhibition
14,"CCN(CC)CCCNc1nc(-c2cc(C(=O)NCC3CCCC3)ccc2C)c2ccc(=O)n(-c3c(F)cccc3F)c2n1 [Example 132, N-(cyclopentylmethyl)-3-[2-{[3-(diethylamino)propyl]amino}-8-(2,6-difluorophenyl)-7-oxo-7,8-dihydropyrido[2,3-d]pyrimidin-4-yl]-4-methylbenzamidetrifluoroacetate]",statistically nonsignificant inhibition
15,"CCN(CC)CCCNc1nc(-c2cc(C(=O)NCC3CCCCC3)ccc2C)c2ccc(=O)n(-c3c(F)cccc3F)c2n1 [Example 135, N-(cyclohexylmethyl)-3-[2-{[3-(diethylamino)propyl]amino}-8-(2,6-difluorophenyl)-7-oxo-7,8-dihydropyrido[2,3-d]pyrimidin-4-yl]-4-methylbenzamidetrifluoroacetate]",inactive
16,"CCC(C)NC(=O)c1ccc(C)c(-c2nc(NCCCN(CC)CC)nc3c2ccc(=O)n3-c2c(F)cccc2F)c1 (stereo not shown) [Example 162, 3-[2-{[3-(diethylamino)propyl]amino}-8-(2,6-difluorophenyl)-7-oxo-7,8-dihydropyrido[2,3-d]pyrimidin-4-yl]-4-methyl-N-(1-methylpropyl)benzamide]",statistically nonsignificant inhibition
17,"CCN(CC)CCCNc1nc(-c2cc(C(=O)Nc3ccccc3)ccc2C)c2ccc(=O)n(-c3c(F)cccc3F)c2n1 [Example 147, 3-[2-{[3-(diethylamino)propyl]amino}-8-(2,6-difluorophenyl)-7-oxo-7,8-dihydropyrido[2,3-d]pyrimidin-4-yl]-4-methyl-N-phenylbenzamide]",statistically nonsignificant inhibition
18,"Cc1ccc(C(=O)Nc2nccs2)cc1-c1nc(N2CCC(N)CC2)nc2c1ccc(=O)n2-c1c(F)cccc1F [Example 73, 3-[2-(4-amino-1-piperidinyl)-8-(2,6-difluorophenyl)-7-oxo-7,8-dihydropyrido[2,3-d]pyrimidin-4-yl]-4-methyl-N-1,3-thiazol-2-ylbenzamide]",statistically significant inhibition
19,"CCN(CC)CCCNc1nc(-c2cc(C(=O)NCC(C)C)ccc2C)c2ccc(=O)n(-c3c(F)cccc3F)c2n1 [Example 124, 3-[2-{[3-(diethylamino)propyl]amino}-8-(2,6-difluorophenyl)-7-oxo-7,8-dihydropyrido[2,3-d]pyrimidin-4-yl]-4-methyl-N-(2-methylpropyl)benzamide]",statistically significant inhibition
20,"Cc1ccc(C(=O)NCCc2ccccc2)cc1-c1nc(NC2CC(C)(C)NC(C)(C)C2)nc2c1ccc(=O)n2-c1c(F)cccc1F [Example 28, 3-{8-(2,6-difluorophenyl)-7-oxo-2-[(2,2,6,6-tetramethyl-4-piperidinyl)amino]-7,8-dihydropyrido[2,3-d]pyrimidin-4-yl}-4-methyl-N-(2-phenylethyl)benzamide]",statistically nonsignificant inhibition
21,"Cc1ccc(C(=O)Nc2ccc(F)cc2)cc1-c1nc(NCCN(C)C(=O)OC(C)(C)C)nc2c1ccc(=O)n2-c1c(F)cccc1F [Example 95, 1,1-dimethylethyl(2-{[8-(2,6-difluorophenyl)-4-(5-{[(4-fluorophenyl)amino]carbonyl}-2-methylphenyl)-7-oxo-7,8-dihydropyrido[2,3-d]pyrimidin-2-yl]amino}ethyl)methylcarbamate]",statistically nonsignificant inhibition
22,"CCCNC(=O)c1ccc(C)c(-c2nc(NCCNC)nc3c2ccc(=O)n3-c2c(F)cccc2F)c1 [56(d), 3-(8-(2,6-difluorophenyl)-2-{[2-(methylamino)ethyl]amino}-7-oxo-7,8-dihydropyrido[2,3-d]pyrimidin-4-yl)-4-methyl-N-propylbenzamide]",statistically significant inhibition
